Measurements reported in BindingDB's records for doi:10.7270/Q2TX3CSC (Vanderbilt Screening Center for GPCRs, Ion Channels and …, 2009).

Molecular target: T1, Solute carrier family 12 member 5 (Homo sapiens, UniProt Q9H2X9)
T1 sequence (Q9H2X9 whole entry): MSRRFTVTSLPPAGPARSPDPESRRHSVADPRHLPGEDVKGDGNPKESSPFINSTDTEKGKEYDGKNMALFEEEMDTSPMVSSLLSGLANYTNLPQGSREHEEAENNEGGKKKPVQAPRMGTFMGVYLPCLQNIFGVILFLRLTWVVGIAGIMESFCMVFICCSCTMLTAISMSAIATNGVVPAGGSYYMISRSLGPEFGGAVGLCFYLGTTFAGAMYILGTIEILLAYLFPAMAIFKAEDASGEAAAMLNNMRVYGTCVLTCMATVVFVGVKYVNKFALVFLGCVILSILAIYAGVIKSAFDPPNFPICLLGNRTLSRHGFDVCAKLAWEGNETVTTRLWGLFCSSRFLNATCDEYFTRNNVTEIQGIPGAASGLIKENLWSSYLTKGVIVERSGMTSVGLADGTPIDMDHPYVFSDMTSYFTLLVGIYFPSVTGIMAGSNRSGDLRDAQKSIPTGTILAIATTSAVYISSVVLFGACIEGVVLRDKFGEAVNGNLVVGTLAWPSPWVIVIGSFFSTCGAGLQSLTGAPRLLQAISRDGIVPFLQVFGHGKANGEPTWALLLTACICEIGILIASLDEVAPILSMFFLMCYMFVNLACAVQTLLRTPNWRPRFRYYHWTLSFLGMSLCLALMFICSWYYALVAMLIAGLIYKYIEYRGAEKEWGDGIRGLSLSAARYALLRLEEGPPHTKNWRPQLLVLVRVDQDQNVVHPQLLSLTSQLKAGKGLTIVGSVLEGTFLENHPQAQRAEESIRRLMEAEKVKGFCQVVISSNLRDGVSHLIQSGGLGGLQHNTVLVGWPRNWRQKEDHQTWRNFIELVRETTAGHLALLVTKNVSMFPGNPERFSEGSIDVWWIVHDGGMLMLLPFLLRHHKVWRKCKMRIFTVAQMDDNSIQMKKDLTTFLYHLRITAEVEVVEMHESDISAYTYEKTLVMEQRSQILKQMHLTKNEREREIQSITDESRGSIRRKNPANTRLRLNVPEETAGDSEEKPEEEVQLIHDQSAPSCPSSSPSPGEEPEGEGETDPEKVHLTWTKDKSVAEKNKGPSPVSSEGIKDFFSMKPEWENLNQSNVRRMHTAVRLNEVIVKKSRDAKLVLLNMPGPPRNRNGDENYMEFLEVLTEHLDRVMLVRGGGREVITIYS
Assay: KCC2 modulator potency by thallium flux, dose response, cell-based, HEK293 KCC2, FluoZin-2 fluorescence (AID 1736)
Details: not given

| SMILES | EC50 [µM] |
| --- | --- |
| CN(C)S(=O)(=O)c1cccc(NC(=O)c2cc3c(cc2Cl)N2CCCCC=C2NS3(=O)=O)c1 [2-chloranyl-N-[3-(dimethylsulfamoyl)phenyl]-5,5-bis(oxidanylidene)-8,9,10,11-tetrahydro-7H-azepino[2,1-c][1,2,4]benzothiadiazine-3-carboxamide] | 281 |
| O=C(C1CCCN(S(=O)(=O)c2cccc3nonc23)C1)N1CCC(Cc2ccccc2)CC1 (stereo not given) [(1-benzofurazan-4-ylsulfonyl-3-piperidyl)-(4-benzylpiperidino)methanone] | 3810 |
| S=C(NCc1ccccc1Cl)Nc1ccccc1Cl [1-(2-chlorobenzyl)-3-(2-chlorophenyl)thiourea] | 204 |
| O=C(CN(c1ccc2c(c1)OCCO2)S(=O)(=O)c1ccccc1)N1CCN(Cc2ccccc2)CC1 [MLS000693333] | 11.7 |
| CCc1ccc(C(=O)COC(=O)c2cc([N+](=O)[O-])ccc2NCCO)cc1 [2-(2-hydroxyethylamino)-5-nitro-benzoic acid [2-(4-ethylphenyl)-2-keto-ethyl] ester] | 17.2 |
| Cc1ccc(S(=O)(=O)N2CCC(=O)N(C(COCc3ccccc3)Cc3ccccc3)CC2)cc1 (stereo not given) [1-(4-methylphenyl)sulfonyl-4-(1-phenyl-3-phenylmethoxy-propan-2-yl)-1,4-diazepan-5-one] | 1.69 |
| O=C(c1ccccc1SCc1ccc(F)cc1)N1CCOCC1 [MLS000712999] | 6.48 |
| O=C(Cn1nc(-c2ccccc2)ccc1=O)NCc1ccc2c(c1)OCO2 [2-(6-keto-3-phenyl-pyridazin-1-yl)-N-piperonyl-acetamide] | 3.26 |
| CC1Cc2ccccc2N1C(=O)c1ccc(N2CCCC2)c([N+](=O)[O-])c1 (stereo not given) [(2-methyl-2,3-dihydroindol-1-yl)-(3-nitro-4-pyrrolidin-1-yl-phenyl)methanone] | 0.772 |
| CC1(CCc2ccccc2)NC(=O)N(Cc2nnc(-c3ccccc3Br)o2)C1=O (stereo not given) [3-[[5-(2-bromophenyl)-1,3,4-oxadiazol-2-yl]methyl]-5-methyl-5-(2-phenylethyl)imidazolidine-2,4-dione] | 14.3 |
| Cc1onc(C(=O)N2CCN(Cc3ccccc3)CC2)c1[N+](=O)[O-] [(4-benzylpiperazin-1-yl)-(5-methyl-4-nitro-1,2-oxazol-3-yl)methanone] | 59.4 |
| O=C(C1CCN(c2nc3ccc(Br)cc3s2)CC1)N1CCC2(CC1)OCCO2 [8-{[1-(6-bromo-1,3-benzothiazol-2-yl)piperidin-4-yl]carbonyl}-1,4-dioxa-8-azaspiro[4.5]decane] | 14.3 |
| COc1ccc(-c2cc(CNC(=O)CN(C)Cc3ccccc3)on2)cc1 [2-[benzyl(methyl)amino]-N-[[3-(4-methoxyphenyl)-1,2-oxazol-5-yl]methyl]acetamide] | 5.23 |
| Cc1[nH]c2ccccc2c1Cc1n[nH]c(=S)n1C | 6.59 |
| Cc1onc(-c2ccccc2Cl)c1C(=O)NC(=S)Nc1ccc(C(C)C)cc1 [3-(2-chlorophenyl)-5-methyl-N-(p-cumenylthiocarbamoyl)isoxazole-4-carboxamide] | 0.271 |
| COCCN1C(=O)/C(=C/c2ccc(OCc3ccc(C(=O)O)cc3)c(OC)c2)S/C1=N/c1ccccc1 [4-[(2-methoxy-4-{[3-(2-methoxyethyl)-4-oxo-2-(phenylimino)-1,3-thiazolidin-5-ylidene]methyl}phenoxy)methyl]benzoic acid] | 44.9 |
| Cc1cccc(Nc2nnc(SCC(=O)c3ccc(Br)s3)s2)c1C [1-(5-bromanylthiophen-2-yl)-2-[[5-[(2,3-dimethylphenyl)amino]-1,3,4-thiadiazol-2-yl]sulfanyl]ethanone] | 1.41 |
| Fc1ccc(CSc2nncn2NC/C=C/c2ccccc2)cc1 [3-[(4-fluorobenzyl)thio]-N-(3-phenyl-2-propen-1-yl)-4H-1,2,4-triazol-4-amine] | 30.2 |
| N#Cc1ccccc1NC(=O)CSc1nccn1CCc1ccccc1 [MLS000051858] | 3.24 |

| SMILES | EC50 [µM] |
| --- | --- |
| O=[N+]([O-])c1ccccc1C=C[CH+][N-]n1c(-c2ccc(Cl)cc2)n[nH]c1=S [MLS000555506] | 23.6 |
| CCCCNc1cc(C(=O)O)cc(S(N)(=O)=O)c1Oc1ccccc1 [Fordiuran] | 4.69e-05 |
| O=C(Cn1cnc2c(nnn2-c2ccccc2)c1=O)NCCc1ccccc1 [2-(7-keto-3-phenyl-triazolo[4,5-d]pyrimidin-6-yl)-N-phenethyl-acetamide] | 27.5 |
| COc1cc(CC(C)N)c(OC)cc1I (stereo not given) [[125I]2,5-dimethoxy-4-iodoamphetamine] | 290 |
| O=C(OCC(=O)N1CCN(C(=O)c2ccco2)CC1)c1sc2ccccc2c1Cl [3-chloro-1-benzothiophene-2-carboxylic acid [2-[4-[2-furanyl(oxo)methyl]-1-piperazinyl]-2-oxoethyl] ester] | 0.478 |
| O=C(CN1C(=O)NC2(CCCC2)C1=O)Nc1nc(-c2ccc(F)cc2)cs1 [2-(2,4-diketo-1,3-diazaspiro[4.4]nonan-3-yl)-N-[4-(4-fluorophenyl)thiazol-2-yl]acetamide] | 0.0699 |
| O=C(Cn1cnc2c(nnn2Cc2ccc(F)cc2)c1=O)N1CCN(c2ccccc2)CC1 [3-(4-fluorobenzyl)-6-[2-keto-2-(4-phenylpiperazino)ethyl]triazolo[4,5-d]pyrimidin-7-one] | 20 |
| CCn1c(CCNC(=O)c2cccs2)nnc1SCC(=O)Nc1nc(-c2ccccc2)cs1 [MLS000548611] | 4.57 |
| CSc1ccccc1N=C(S)Nc1ccc(S(N)(=O)=O)cc1 [1-(2-methylsulfanylphenyl)-3-(4-sulfamoylphenyl)thiourea] | 38.4 |
| Cc1cc([N+](=O)[O-])ccc1NCc1ccccc1 [2-methyl-4-nitro-N-(phenylmethyl)aniline] | 1.74 |
| Cc1oc(-c2ccccc2)nc1C[S+]([O-])CC(=O)N1CCc2ccccc2C1 (stereo not given) [1-(3,4-dihydro-1H-isoquinolin-2-yl)-2-[(5-methyl-2-phenyl-1,3-oxazol-4-yl)methylsulfinyl]ethanone] | 7.74 |
| O=S(=O)(NCCc1ccccc1F)c1cccc(S(=O)(=O)N2CCOCC2)c1 [MLS000076090] | 1.65 |
| COc1ccc(S(=O)(=O)N(CCc2ccccc2)CC(=O)O)cc1Cl [2-[(3-chloranyl-4-methoxy-phenyl)sulfonyl-(2-phenylethyl)amino]ethanoic acid] | 7.63 |
| COc1cc(C=NN(C)c2ccccc2)ccc1O | 23.8 |
| O=C(NNc1nc(-c2ccccc2)cs1)c1ccccc1 [MLS000547345] | 0.024 |
| O=C(OCc1ccccn1)c1ccc(COc2ccccc2Cl)o1 [5-(2-Chloro-phenoxymethyl)-furan-2-carboxylic acid pyridin-2-ylmethyl ester] | 14.3 |
| O=C(c1ccc(S(=O)(=O)c2cccc(Cl)c2)c([N+](=O)[O-])c1)N1CCN(c2ccccn2)CC1 [1-{4-[(3-chlorophenyl)sulfonyl]-3-nitrobenzoyl}-4-pyridin-2-ylpiperazine] | 6.85 |
| COc1ccccc1N1CCN(C(=S)NC(=O)/C=C/c2ccccc2)CC1 [(E)-N-[4-(2-Methoxy-phenyl)-piperazine-1-carbothioyl]-3-phenyl-acrylamide] | 20 |

Same assay, conditions: inactive by the depositor's call

| SMILES | EC50 [µM] |
| --- | --- |
| O=C(/C=C/c1ccccc1)Nc1scc(-c2ccccc2)c1C(=O)O [2-[[(E)-1-oxo-3-phenylprop-2-enyl]amino]-4-phenyl-3-thiophenecarboxylic acid] | 0.134 |
| O=C(CSc1nnnn1-c1ccccc1)Nc1nsc(-c2ccccc2)n1 [2-(1-phenyltetrazol-5-yl)sulfanyl-N-(5-phenyl-1,2,4-thiadiazol-3-yl)acetamide] | 1.4 |
| O=c1oc2ccccc2c(Nc2cc3ccccc3cc2O)c1[N+](=O)[O-] [3-nitro-4-[(3-oxidanylnaphthalen-2-yl)amino]chromen-2-one] | 11.4 |
| COc1ccc(C(=O)NC(=S)N2CCN(c3ccc([N+](=O)[O-])cc3)CC2)cc1 [4-methoxy-N-[4-(4-nitrophenyl)piperazin-1-yl]carbothioyl-benzamide] | 0.178 |
| CCOc1ccccc1CNC(=O)C1CCN(c2nc3ccccc3o2)CC1 [1-(1,3-benzoxazol-2-yl)-N-(2-ethoxybenzyl)isonipecotamide] | 95.9 |
| Fc1ccccc1CSc1nncn1NC/C=C/c1ccccc1 [3-[(2-fluorophenyl)methylsulfanyl]-N-[(E)-3-phenylprop-2-enyl]-1,2,4-triazol-4-amine] | 0.0567 |
| COc1ccccc1-c1nc(C#N)c(N2CCC(Cc3ccccc3)CC2)o1 [2-(2-methoxyphenyl)-5-[4-(phenylmethyl)-1-piperidinyl]-4-oxazolecarbonitrile] | 0.733 |
| CC(C)Oc1ccccc1OCCCOc1cccc2cccnc12 [8-[3-(2-isopropoxyphenoxy)propoxy]quinoline] | 10.5 |
